Measured values: patent publication US10858316B2, “Small molecule inhibitors of the MCL-1 oncoprotein and uses thereof” (University of Maryland, Baltimore, priority 2015, dated 2020)
Several values for one entry are separate records, joined by “and”; a condition that tells them apart may be missing. Identical values can stand only once. Like-named read-outs stand apart in the source and are kept apart here.

Assays:
[1] = target: Mcl-1 (Homo sapiens (Human), UniProt Q07820); test: Fluorescence polarization competition assay (FPCA), Mcl-1 / FITC-Bak BH3 peptide; type: binding; conditions: for Mcl-1 Exp ΔG: ΔG=−RTlnKi from experimental Ki; for Ki: read-out: Mcl-1 Ki
Sequence of Mcl-1 (Homo sapiens (Human), UniProt Q07820) (Q07820 172-327): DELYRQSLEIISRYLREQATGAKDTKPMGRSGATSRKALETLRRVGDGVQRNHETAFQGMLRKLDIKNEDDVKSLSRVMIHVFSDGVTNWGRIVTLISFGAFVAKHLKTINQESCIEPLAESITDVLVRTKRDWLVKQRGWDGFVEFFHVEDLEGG
Excerpt: (§1) The tagged protein was initially purified from the crude cell lysate by immobilized metal affinity chromatography (IMAC) chromatography (GE Healthcare Life Sciences), and after dialysis to remove the imidazole the affinity tag was cleaved using PreScission Protease (GE Healthcare Life Sciences). A Sephacryl S-200 size exclusion column was used as a final purification step before the protein was concentrated with a 10,000 MWCO centifugal filter concentrator (Millipore).
(§2) Fluorescence polarization experiments were conducted using a BMG PHERAstar FS multimode microplate reader equipped with two PMTs for simultaneous measurements of the perpendicular and parallel fluorescence emission. The assays were performed in black polypropylene 384-well microplate (Costar) with a final volume of 20 microliter. […] Regression analysis was carried out using Origin (OriginLab, Northampton, Mass.) to fit the data to the Hill equation (1) to determine the initial binding affinity (KD) and the IC50 in the FPCA. For the fluorescence polarization competition titrations, an equation derived by Nikolovska-Coleska et al. was used to calculate the Ki from the IC50 data.
(§3) The target molecules were assayed for their abilities to disrupt the Mcl-1-Bak-BH3 PPI in a fluorescence polarization competition (FPC) assay with Mcl-1 and FITC-labeled Bak-BH3 peptide. Further details on the FPC assay can be found in the Supporting Information.

[2] = system: Mcl-1; test: as above; type: binding, human; conditions: for Exp. ΔG diff.: between Mcl-1 and Bcl-xL, positive favors Mcl-1; for Selectivity, Ki (Bcl-xL) divided by Ki (Mcl-1): Mcl-1 over Bcl-xL
Excerpt: as §1, §2, §3

[3] = target: Bcl-xL (Homo sapiens (Human), UniProt Q07817); test: Fluorescence polarization competition assay, Bcl-xL; type: binding; conditions: for Bcl-xL Exp ΔG: ΔG from experimental Ki; for Ki: Ki from IC50 by Nikolovska-Coleska equation, NA = no activity, read-out: Bcl-xL Ki
Sequence of Bcl-xL (Q07817 whole entry): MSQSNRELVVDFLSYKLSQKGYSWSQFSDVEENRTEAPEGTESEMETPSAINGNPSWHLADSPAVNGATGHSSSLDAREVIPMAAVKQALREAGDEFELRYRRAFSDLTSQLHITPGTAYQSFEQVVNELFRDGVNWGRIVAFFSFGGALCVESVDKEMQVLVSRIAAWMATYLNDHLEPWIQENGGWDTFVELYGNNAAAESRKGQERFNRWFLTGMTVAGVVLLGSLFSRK
Method: as §2

[4] = FPCA with FITC-Bak, Ki from IC50 by Nikolovska-Coleska equation

Mcl-1 Exp ΔG [1] | Bcl-xL Exp ΔG [3] | Ki [1, 4] | IC50 ([1]; FPCA, read-out: IC50 disruption of Mcl-1-Bak-BH3 PPI) | Selectivity, Ki (Bcl-xL) divided by Ki (Mcl-1) [2] | Ki [3] | Ki ([1]; FPCA) | Compound | Exp. ΔG diff. [2]
-7.58 kcal/mol | -5.85 kcal/mol | – | – | – | – | – | O=C(O)c1cc(S(=O)(=O)Nc2ccc(Br)cc2)c2ccccc2c1O [1; 3a] | 1.73 kcal/mol
-7.29 kcal/mol | -6.31 kcal/mol | – | – | – | – | – | O=C(O)c1cc(S(=O)(=O)Nc2ccc([N+](=O)[O-])cc2)c2ccccc2c1O [3ac; MEL-3-005] | 0.98 kcal/mol
-8.83 kcal/mol | -8.28 kcal/mol | – | – | – | – | – | Cc1ccc(Oc2ccc(NS(=O)(=O)c3cc(C(=O)O)c(O)c4ccccc34)cc2)cc1 [3bc; SF-5-301] | 0.55 kcal/mol
-9.66 kcal/mol | -9.08 kcal/mol | – | – | – | – | – | O=C(O)c1cc(S(=O)(=O)Nc2ccc(Oc3cccc4ccccc34)cc2)c2ccccc2c1O [3bd; SF-5-300] | 0.58 kcal/mol
-9.47 kcal/mol | -8.89 kcal/mol | – | – | – | – | – | O=C(O)c1cc(S(=O)(=O)Nc2ccc(Oc3cccc(Br)c3)cc2)c2ccccc2c1O [3be; SF-5-303] | 0.58 kcal/mol
-8.93 kcal/mol | -8.74 kcal/mol | – | – | – | – | – | Cc1cc(C)cc(Oc2ccc(NS(=O)(=O)c3cc(C(=O)O)c(O)c4ccccc34)cc2)c1 [3bf; SF-5-306] | 0.19 kcal/mol
-9.68 kcal/mol | -9.16 kcal/mol | – | – | – | – | – | O=C(O)c1cc(S(=O)(=O)Nc2ccc(Oc3ccc(Cl)cc3Cl)cc2)c2ccccc2c1O [3bg; SF-5-302] | 0.52 kcal/mol
-9.45 kcal/mol | -8.61 kcal/mol | – | – | – | – | – | Cc1cc(Oc2ccc(NS(=O)(=O)c3cc(C(=O)O)c(O)c4ccccc34)cc2)cc(C)c1Cl [3bi; JY-5-371] | 0.84 kcal/mol
-9.68 kcal/mol | -9.23 kcal/mol | – | – | – | – | – | Cc1cc(Oc2ccc(N(CC(C)C)S(=O)(=O)c3cc(C(=O)O)c(O)c4ccccc34)cc2)cc(C)c1Cl [3bj; JY-5-377] | 0.45 kcal/mol
-10.20 kcal/mol | -8.91 kcal/mol | – | – | – | – | – | Cc1cc(Oc2ccc(N(C3CCCC3)S(=O)(=O)c3cc(C(=O)O)c(O)c4ccccc34)cc2)cc(C)c1Cl [3bk; JY-5-379] | 1.29 kcal/mol
-6.38 kcal/mol | -4.73 kcal/mol | – | – | – | – | – | O=C(O)c1cc(S(=O)(=O)NCc2ccc(Cl)cc2)c2ccccc2c1O [3f; SF-5-264] | 1.65 kcal/mol
-7.00 kcal/mol | -5.60 kcal/mol | – | – | – | – | – | O=C(O)c1cc(S(=O)(=O)NCC2CCCCC2)c2ccccc2c1O [3g; MEL-3-006] | 1.40 kcal/mol
– | – | 2.76 µM | 10.9 µM | 19 | 51.4 ± 31.3 µM | – | O=C(O)c1cc(S(=O)(=O)Nc2ccc(Br)cc2)c2ccccc2c1O [Compound 3a, 4-(N-(4-bromophenyl)sulfamoyl)-1-hydroxy-2-naphthoic Acid] | –
– | – | 4.49 ± 1.2 µM | – | 5.2 | 23.3 ± 2.5 µM | – | O=C(O)c1cc(S(=O)(=O)Nc2ccc([N+](=O)[O-])cc2)c2ccccc2c1O [Compound 3ac, 1-Hydroxy-4-(N-(4-nitrophenyl)sulfamoyl)-2-naphthoic Acid] | –
– | – | 0.335 µM | – | 2.5 | 0.84 ± 0.05 µM | – | Cc1ccc(Oc2ccc(NS(=O)(=O)c3cc(C(=O)O)c(O)c4ccccc34)cc2)cc1 [Compound 3bc, 1-Hydroxy-4-(N-(4-(p-tolyloxy)phenyl)sulfamoyl)-2-naphthoic Acid] | –
– | – | 0.082 µM | – | 3.7 | 0.22 ± 0.06 µM | – | O=C(O)c1cc(S(=O)(=O)Nc2ccc(Oc3cccc4ccccc34)cc2)c2ccccc2c1O [Compound 3bd, 1-Hydroxy-4-(N-(4-(naphthalen-1-yloxy)phenyl)sulfamoyl)-2-naphthoic Acid] | –
– | – | 0.114 µM | – | 3.8 | 0.3 ± 0.04 µM | – | O=C(O)c1cc(S(=O)(=O)Nc2ccc(Oc3cccc(Br)c3)cc2)c2ccccc2c1O [Compound 3be, 4-(N-(4-(3-Bromophenoxy)phenyl)sulfamoyl)-1-hydroxy-2-naphthoic Acid] | –
– | – | 0.284 µM | – | 1.4 | 0.39 ± 0.1 µM | – | Cc1cc(C)cc(Oc2ccc(NS(=O)(=O)c3cc(C(=O)O)c(O)c4ccccc34)cc2)c1 [Compound 3bf, 4-(N-(4-(3,5-Dimethylphenoxy)phenyl)sulfamoyl)-1-hydroxy-2-naphthoic Acid] | –
– | – | 0.079 µM | – | 2.4 | 0.19 ± 0.02 µM | – | O=C(O)c1cc(S(=O)(=O)Nc2ccc(Oc3ccc(Cl)cc3Cl)cc2)c2ccccc2c1O [Compound 3bg, 4-(N-(4-(2,4-Dichlorophenoxy)phenyl)sulfamoyl)-1-hydroxy-2-naphthoic Acid] | –
– | – | 0.117 ± 0.06 µM | – | 4.1 | 0.48 ± 0.05 µM | – | Cc1cc(Oc2ccc(NS(=O)(=O)c3cc(C(=O)O)c(O)c4ccccc34)cc2)cc(C)c1Cl [Compound 3bi, 4-(N-(4-(4-Chloro-3,5-dimethylphenoxy)phenyl)sulfamoyl)-1-hydroxy-2-naphthoic Acid] | –
– | – | 0.08 ± 0.019 µM | – | 2.1 | 0.17 ± 0.06 µM | – | Cc1cc(Oc2ccc(N(CC(C)C)S(=O)(=O)c3cc(C(=O)O)c(O)c4ccccc34)cc2)cc(C)c1Cl [Compound 3bj, 4-(N-(4-(4-Chloro-3,5-dimethylphenoxy)phenyl)-N-isobutylsulfamoyl)-1-hydroxy-2-naphthoic Acid] | –
– | – | – | – | 8.8 | 0.29 ± 0.05 µM | 0.033 µM | Cc1cc(Oc2ccc(N(C3CCCC3)S(=O)(=O)c3cc(C(=O)O)c(O)c4ccccc34)cc2)cc(C)c1Cl [Compound 3bk, 4-(N-(4-(4-Chloro-3,5-dimethylphenoxy)phenyl)-N-cyclopentylsulfamoyl)-1-hydroxy-2-naphthoic Acid] | –
– | – | 21 ± 3.9 µM | – | 16 | 338 ± 203 µM | – | O=C(O)c1cc(S(=O)(=O)NCc2ccc(Cl)cc2)c2ccccc2c1O [Compound 3f, 4-(N-(4-Chlorobenzyl)sulfamoyl)-1-hydroxy-2-naphthoic Acid] | –
– | – | 7.31 ± 1.42 µM | – | 11 | 77.6 ± 14.3 µM | – | O=C(O)c1cc(S(=O)(=O)NCC2CCCCC2)c2ccccc2c1O [Compound 3g, 4-(N-(Cyclohexylmethyl)sulfamoyl)-1-hydroxy-2-naphthoic Acid] | –

Compound | Mcl-1 Exp ΔG [1] | Bcl-xL Exp ΔG [3] | Ki [1, 4] | IC50 ([1]; FPCA, read-out: IC50 disruption of Mcl-1-Bak-BH3 PPI) | Selectivity, Ki (Bcl-xL) divided by Ki (Mcl-1) [2] | Ki [3] | Ki ([1]; FPCA) | Exp. ΔG diff. [2]
O=C(O)c1cc(S(=O)(=O)Nc2ccc(Br)cc2Br)c2ccccc2c1O [3o; SF-5-290] | -8.69 kcal/mol | -7.68 kcal/mol | – | – | – | – | – | 1.01 kcal/mol
O=C(O)c1cc(S(=O)(=O)Nc2cccc3ccccc23)c2ccccc2c1O [3p; EW-2-056] | -6.75 kcal/mol | -5.40 kcal/mol | – | – | – | – | – | 1.35 kcal/mol
O=C(O)c1cc(S(=O)(=O)Nc2ccc3ccccc3c2)c2ccccc2c1O [3q; EW-2-057] | -7.28 kcal/mol | -5.68 kcal/mol | – | – | – | – | – | 1.60 kcal/mol
O=C(O)c1cc(S(=O)(=O)Nc2ccccc2C(F)(F)F)c2ccccc2c1O [3u; TA-1-017] | -7.35 kcal/mol | -6.43 kcal/mol | – | – | – | – | – | 0.92 kcal/mol
COc1ccc(NS(=O)(=O)c2cc(C(=O)O)c(O)c3ccccc23)cc1 [3z; MEL-3-018] | -6.71 kcal/mol | -5.65 kcal/mol | – | – | – | – | – | 1.06 kcal/mol
O=C(NS(=O)(=O)c1ccccc1)c1ccc(N(Cc2ccccc2)S(=O)(=O)c2ccc(Oc3ccccc3)cc2)cc1O [LC-5-096 28] | – | – | 1.9 µM and 1.95 µM | – | – | 2.34 ± 0.221 µM | – | –
O=C(NS(=O)(=O)c1ccc(NCC2CCOCC2)c([N+](=O)[O-])c1)c1ccc(N(Cc2ccccc2)S(=O)(=O)c2ccc(Oc3ccccc3)cc2)cc1O [LC-5-107 30] | – | – | 1.23 ± 0.152 µM | – | – | 1.05 ± 0.146 µM | – | –
CS(=O)(=O)NC(=O)c1ccc(N(Cc2ccccc2)S(=O)(=O)c2ccc(Oc3ccccc3)cc2)cc1O [LC-5-112 27] | – | – | 2.94 ± 0.35 µM | – | – | 7.22 ± 1.07 µM | – | –
Cc1cc(Oc2ccc(S(=O)(=O)N(Cc3ccccc3)c3ccc(O)c(C(=O)O)c3)cc2)cc(C)c1Cl [LC-5-129 29] | – | – | 1.4 ± 0.47 µM | – | – | 1.82 ± 0.234 µM | – | –
Cc1cc(Oc2ccc(S(=O)(=O)N(Cc3ccccc3)c3ccc(O)c(C(=O)NS(=O)(=O)c4ccc(NCC5CCOCC5)c([N+](=O)[O-])c4)c3)cc2)cc(C)c1Cl [LC-5-132 33] | – | – | 1.01 ± 0.08 µM | – | – | 1.54 ± 0.226 µM | – | –
Cc1cc(CCCNc2ccc(C(=O)O)c(O)c2)cc(C)c1Cl [LC-5-184 36] | – | – | 15.2 ± 1.89 µM | – | – | 22.7 ± 4.08 µM | – | –
CC(C)CN(c1ccc(O)c(C(=O)O)c1)S(=O)(=O)c1ccc2ccccc2c1 [jy-5-299 18bb] | – | – | 7.51 ± 0.84 µM | – | – | 44.6 ± 5.93 µM | – | –
